This is an account of results in patent publication US8906908B2, “Hydroxybupropion analogues for treating drug dependence” (priority 2010, dated 2014).

One test concerns the target T1, α4β2-nAChR (Homo sapiens, UniProt P17787+P43681).
T1 construct: expressed in transfected cells; host or cells: SH-EP1 epithelial cells (SH-EP1-hα4β2)
The experiment in a line: 86Rb+ efflux nAChR functional assay, SH-EP1-hα4β2 cells. The class given is cell-based. The text has this: (§1) Cell Lines and Culture: Human embryonic kidney (HEK-293) cells stably expressing human DAT, NET or SERT were maintained as previously described in Eshleman, A. J.; Carmolli, M.; Cumbay, M.; Martens, C. R.; Neve, K. A.; Janowsky, A., J. Pharmacol. Exp. Ther. 1999, 289, (2), 877-885. Use was made of several human cell lines that naturally or heterologously express specific, functional, human nAChR subtypes. Cells of the TE671/RD line naturally expresses muscle-type nAChR (a1β1γδ- or α1*-nAChR), and SH-SY5Y neuroblastoma cells naturally expresses autonomic α3β4*-nAChRs (containing α3, β4, probably α5, and sometimes β2 subunits). Different clones of SH-EP1 epithelial cell lines have been engineered to heterologously express either α4β2-nAChR, which are thought to be the most abundant, high affinity nicotine-binding nAChR in mammalian brain, or α4β4-nAChR, another possible brain nAChR subtype (SH-EP1-hα4β2 or α4β4 cells, respectively). These cells were maintained as low passage number (1-26 from our frozen stocks) cultures to ensure stable expression of native or heterologously-expressed nAChR as previously described (see Lukas, R. J.; Fryer, J. D.; Eaton, J. B.; L., G. C., Some methods for studies of nicotinic acetylcholine receptor pharmacology, in Nicotinic receptors and the Nervous System, Levine, E. D., Ed. CRC Press: Boca Raton, 2002; pp 3-27, incorporated herein by reference in its entirety). Cells were passaged once weekly by splitting just-confluent cultures 1/300 (TE671/RD), 1/5 (SH-SY5Y), or 1/20 (transfected SH-EP1) in serum-supplemented medium to maintain log-phase growth.
(§2) After cells had adhered (generally overnight, but no sooner than 4 h later), the medium was removed and replaced with 250 μL per well of complete medium supplemented with ˜350,000 cpm of ^86Rb^+ (PerkinElmer Life and Analytical Sciences, Boston, Mass.) and counted at 40% efficiency using Cerenkov counting (TriCarb 1900 liquid scintillation analyzer[…]; PerkinElmer Life Sciences).
(§3) After at least 4 h and typically overnight, ^86Rb^+ efflux was measured using the “flip-plate” technique. See Lukas, R. J.; Fryer, J. D.; Eaton, J. B.; L., G. C., Some methods for studies of nicotinic acetylcholine receptor pharmacology, in Nicotinic receptors and the Nervous System, Levine, E. D., Ed. CRC Press: Boca Raton, 2002; pp 3-27, incorporated herein by reference in its entirety). Briefly, after aspiration of the bulk of ^86Rb^+ loading medium from each well of the “cell plate,” each well containing cells was rinsed 3× with 2 mL of fresh ^86Rb^+ efflux buffer (130 mM NaCl, 5.4 mM KCl, 2 mM CaCl2, 5 mM glucose, 50 mM HEPES, pH 7.4) to remove extracellular ^86Rb^+. Following removal of residual rinse buffer by aspiration, the flip-plate technique was used again to simultaneously introduce 1.5 mL of fresh efflux buffer containing drugs of choice at indicated final concentrations from a 24-well “efflux/drug plate” into the wells of the cell plate. After a 5 min incubation, the solution was “flipped” back into the efflux/drug plate, and any remaining buffer in the cell plate was removed by aspiration. Cells remaining in the cell plate were lysed and suspended by addition of 1.5 mL of 0.1 M NaOH, 0.1% sodium dodecyl sulfate to each well.
(§4) Similarly, the sum of ^86Rb^+ in cell plates and efflux/drug plates also determined the efficiency of ^86Rb^+ loading (the percentage of applied ^86Rb^+ actually loaded into cells).
(§5) Specific efflux was then taken as the difference in control samples between total and non-specific ^86Rb^+ efflux. Any intrinsic agonist activity of test drugs was ascertained using samples containing test drug only at different concentrations and was normalized, after subtraction of non-specific efflux, to specific efflux in test drug-free, control samples.

A further test has as its target T2, α4β4-nAChR (Homo sapiens, UniProt P30926+P43681).
T2 construct: expressed in transfected cells; host or cells: SH-EP1 epithelial cells (SH-EP1-hα4β4)
The experiment in a line: 86Rb+ efflux nAChR functional assay, SH-EP1-hα4β4 cells. The class given is cell-based. Conditions: EC80-EC90 carbamylcholine, parentheses = S.E.M. as multiplication/division factor, read-out: nAChR inhibition IC50 α4β4.
Description: as §1, §2, §3, §4, §5

A further test concerns α3β4*-nAChR. The test is described as follows: 86Rb+ efflux nAChR functional assay, SH-SY5Y cells. The test is classed as cell-based, human.
Description: as §1, §2, §3, §4, §5

Where [1] appears, read: EC80-EC90 carbamylcholine, SH-EP1-hα4β2, parentheses = S.E.M. as multiplication/division factor, read-out: nAChR inhibition IC50 α4β2.

Like-named read-outs stand apart in the source and are kept apart here.

T1 sequence (P43681 29-627 limits assumed): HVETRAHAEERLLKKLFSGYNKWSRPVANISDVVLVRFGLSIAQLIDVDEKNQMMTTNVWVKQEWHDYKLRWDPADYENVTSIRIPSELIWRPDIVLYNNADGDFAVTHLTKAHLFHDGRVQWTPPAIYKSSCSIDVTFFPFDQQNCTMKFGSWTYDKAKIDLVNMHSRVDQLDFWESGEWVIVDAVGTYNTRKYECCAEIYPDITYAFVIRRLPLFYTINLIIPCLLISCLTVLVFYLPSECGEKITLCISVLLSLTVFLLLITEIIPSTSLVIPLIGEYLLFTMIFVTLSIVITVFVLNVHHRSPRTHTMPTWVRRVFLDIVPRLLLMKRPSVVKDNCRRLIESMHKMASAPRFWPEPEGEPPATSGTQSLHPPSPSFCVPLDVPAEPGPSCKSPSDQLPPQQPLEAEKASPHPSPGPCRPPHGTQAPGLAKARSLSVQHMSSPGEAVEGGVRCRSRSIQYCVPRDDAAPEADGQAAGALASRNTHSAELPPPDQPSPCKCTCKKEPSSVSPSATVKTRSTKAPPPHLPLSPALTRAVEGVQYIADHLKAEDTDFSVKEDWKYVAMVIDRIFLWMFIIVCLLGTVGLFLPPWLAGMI
T1 sequence (P17787 26-502): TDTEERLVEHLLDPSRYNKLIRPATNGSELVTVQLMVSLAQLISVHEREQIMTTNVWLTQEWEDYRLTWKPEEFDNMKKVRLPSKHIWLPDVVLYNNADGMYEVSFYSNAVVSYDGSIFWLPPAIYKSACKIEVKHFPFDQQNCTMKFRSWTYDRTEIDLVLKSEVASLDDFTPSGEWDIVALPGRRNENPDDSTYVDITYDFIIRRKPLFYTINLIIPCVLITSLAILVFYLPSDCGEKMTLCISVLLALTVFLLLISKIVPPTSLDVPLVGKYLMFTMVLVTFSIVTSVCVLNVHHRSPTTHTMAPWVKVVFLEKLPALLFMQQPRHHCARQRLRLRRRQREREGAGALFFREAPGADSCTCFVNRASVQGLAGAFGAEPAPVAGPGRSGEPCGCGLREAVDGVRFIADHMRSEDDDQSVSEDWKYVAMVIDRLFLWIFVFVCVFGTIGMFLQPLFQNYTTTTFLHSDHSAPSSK
T2 sequence (P43681 29-627 limits assumed): as the sequence (P43681 29-627 limits assumed) above
T2 sequence (P30926 22-498): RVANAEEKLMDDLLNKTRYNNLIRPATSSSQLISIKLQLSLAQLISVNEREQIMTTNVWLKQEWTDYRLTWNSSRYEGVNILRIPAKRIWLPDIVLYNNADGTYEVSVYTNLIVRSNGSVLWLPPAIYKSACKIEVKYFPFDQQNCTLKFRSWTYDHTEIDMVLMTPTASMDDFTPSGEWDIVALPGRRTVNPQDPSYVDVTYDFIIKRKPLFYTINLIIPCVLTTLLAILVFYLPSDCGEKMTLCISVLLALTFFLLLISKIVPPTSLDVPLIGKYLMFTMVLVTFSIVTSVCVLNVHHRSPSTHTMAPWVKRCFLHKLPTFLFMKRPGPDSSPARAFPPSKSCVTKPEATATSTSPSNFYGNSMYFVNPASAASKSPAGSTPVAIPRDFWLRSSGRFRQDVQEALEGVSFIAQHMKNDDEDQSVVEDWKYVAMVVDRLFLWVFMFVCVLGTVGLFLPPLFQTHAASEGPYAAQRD

Regarding `COc1cccc([C@]2(O)OCC(C)(C)N[C@H]2C)c1` [Compound 4f, (2S,3S)-2-(3-Methoxyphenyl)-3,5,5-trimethylmorpholin-2-ol], the IC50 was less than 10 µM against α4β2-nAChR, 10 µM on α4β2-nAChR (setting [1]) and more than 100 µM at α4β4-nAChR.
`C[C@@H]1N(C)C(C)(C)CO[C@@]1(O)c1cccc(Cl)c1` [Compound 4u, (2S,3S)-2-(3-Chlorophenyl)-3,4,5,5-tetramethylmorpholin-2-ol]: the half-maximal inhibitory concentration (IC50) on α4β2-nAChR (setting [1]) is 7.1 µM; at α4β4-nAChR, 43 µM.
With `C[C@@H]1NC(C)(C)CO[C@@]1(O)c1ccc(Cl)cc1` [Compound 4i, (2S,3S)-2-(4-Chlorophenyl)-3,5,5-trimethylmorpholin-2-ol], the results for the IC50 on α4β2-nAChR (setting [1]) and on α4β4-nAChR were 9.2 µM and 33 µM, respectively.
Regarding `CC1NC(C)(C)COC1(O)c1cc(Cl)cc(Cl)c1` (racemic) [Compound 4p, 2-(3,5-Dichlorophenyl)-3,5,5-trimethylmorpholin-2-ol], the figures for the IC50 at α4β2-nAChR (setting [1]) and on α4β4-nAChR were 11 µM and 18 µM, respectively.
`C[C@@H]1NC(C)(C)CO[C@@]1(O)c1cccc([N+](=O)[O-])c1` [Compound 4g, (2S,3S)-2-(3-Nitrophenyl)-3,5,5-trimethylmorpholin-2-ol]: the IC50 on α4β2-nAChR was less than 10 µM; on α4β2-nAChR (setting [1]), 4.8 µM; on α4β4-nAChR, 80 µM. Besides, the “selectivity for α4β2-nAChR over other nAChR subtypes” value on α4β2-nAChR is on record as approximately 3 fold.
Turning to `COc1ccc([C@]2(O)OCC(C)(C)N[C@H]2C)cc1` [Compound 4k, (2S,3S)-2-(4-Methoxyphenyl)-3,5,5-trimethylmorpholin-2-ol], the IC50 came to 27 µM on α4β2-nAChR (setting [1]) and 72 µM on α4β4-nAChR.
In the case of `C[C@@H]1NC(C)(C)CO[C@@]1(O)c1ccc(F)cc1` [Compound 4h, (2S,3S)-2-(4-Fluorophenyl)-3,5,5-trimethylmorpholin-2-ol], the IC50 at α4β2-nAChR (setting [1]) was 12 µM; at α4β4-nAChR it was more than 100 µM.
`Cc1cccc([C@]2(O)OCC(C)(C)N[C@H]2C)c1` [Compound 4e, (2S,3S)-2-(m-Tolyl)-3,5,5-trimethylmorpholin-2-ol]: the results for the IC50 on α4β2-nAChR (setting [1]) and on α4β4-nAChR were 6 µM and 64 µM, respectively.
Consider `C[C@@H]1N(C)C(C)(C)CO[C@@]1(O)c1ccc(Cl)cc1` [Compound 4v, (2S,3S)-2-(4-Chlorophenyl)-3,4,5,5-tetramethylmorpholin-2-ol], for which the values for the IC50 on α4β2-nAChR (setting [1]) and on α4β4-nAChR were 42 µM and 91 µM, respectively.
For `C[C@@H]1NC(C)(C)CO[C@@]1(O)c1ccccc1` [Compound 4b, (2S,3S)-2-Phenyl-3,5,5-trimethylmorpholin-2-ol], the IC50 on α4β2-nAChR was less than 10 µM; at α4β2-nAChR (setting [1]) it was 6.4 µM; at α4β4-nAChR it was 92 µM.
Take `CC1NC(C)(C)COC1(O)c1ccc(Cl)c(Cl)c1` (racemic) [Compound 4n, 2-(3,4-Dichlorophenyl)-3,5,5-trimethylmorpholin-2-ol]: in the test on α3β4*-nAChR, the “selectivity for α3β4*- over α4β2-nAChR” value is recorded as approximately 8 fold. Further, the IC50 is 20 µM on α4β2-nAChR (setting [1]) and 14 µM on α4β4-nAChR.
Consider `C[C@@H]1NC(C)(C)CO[C@@]1(O)c1cc(F)cc(F)c1` [Compound 4o, (2S,3S)-2-(3,5-Difluorophenyl)-3,5,5-trimethylmorpholin-2-ol], for which the IC50 against α4β2-nAChR was less than 10 µM; at α4β2-nAChR (setting [1]), 6.3 µM; on α4β4-nAChR, 62 µM.
In the case of `C[C@@H]1NC(C)(C)CO[C@@]1(O)c1cccc2ccccc12` [Compound 4q, (2S,3S)-2-(Naphthalen-1-yl)-3,5,5-trimethylmorpholin-2-ol], the values for the IC50 on α4β2-nAChR (setting [1]) and at α4β4-nAChR were 9 µM and 13 µM, respectively.
Take `C[C@@H]1NC(C)(C)CO[C@@]1(O)c1ccc2ccccc2c1` [Compound 4r, (2S,3S)-2-(Naphthalen-2-yl)-3,5,5-trimethylmorpholin-2-ol]: the IC50 on α4β2-nAChR (setting [1]) came out at 6.5 µM; at α4β4-nAChR it was 11 µM.
For the compound `C[C@@H]1NC(C)(C)CO[C@@]1(O)c1ccc(-c2ccccc2)cc1` [Compound 4l, (2S,3S)-2-Biphenyl-4-yl-3,5,5-trimethylmorpholin-2-ol], the IC50 was less than 10 µM at α4β2-nAChR, 1.8 µM on α4β2-nAChR (setting [1]) and 8.1 µM at α4β4-nAChR.
For `Cc1ccc([C@]2(O)OCC(C)(C)N[C@H]2C)cc1` [Compound 4j, (2S,3S)-3,5,5-Trimethyl-2-(4-methylphenyl)morpholin-2-ol], the results for the IC50 at α4β2-nAChR (setting [1]) and at α4β4-nAChR were 12 µM and 62 µM, respectively.
As for `C[C@@H]1NC(C)(C)CO[C@@]1(O)c1cccc(Br)c1` [Compound 4d, (2S,3S)-2-(3-Bromophenyl)-3,5,5-trimethylmorpholin-2-ol], the “selectivity for inhibition of α4β2-nAChR over DA uptake inhibition” value on α4β2-nAChR is approximately 6 fold. For the same compound, the IC50 on α4β2-nAChR (setting [1]) was found to be 0.55 µM; on α4β4-nAChR it was 30 µM.
Consider `CC[C@@H]1NC(C)(C)CO[C@@]1(O)c1cccc(Cl)c1` [Compound 4s, (2S,3S)-2-(3-Chlorophenyl)-3-ethyl-5,5-dimethylmorpholin-2-ol], for which the figures for the IC50 on α4β2-nAChR (setting [1]) and at α4β4-nAChR were 2.9 µM and 16 µM, respectively.
In the case of `C[C@@H]1NC(C)(C)CO[C@@]1(O)c1cccc(F)c1` [Compound 4c, (2S,3S)-2-(3-Fluorophenyl)-3,5,5-trimethylmorpholin-2-ol], the IC50 at α4β2-nAChR (setting [1]) is 1.3 µM; on α4β4-nAChR, more than 100 µM.
Consider `C[C@@H]1NC(C)(C)CO[C@@]1(O)c1ccc(F)c(F)c1` [Compound 4m, (2S,3S)-2-(3,4-Difluorophenyl)-3,5,5-trimethylmorpholin-2-ol], for which the IC50 on α4β2-nAChR (setting [1]) is 12 µM; on α4β4-nAChR, more than 100 µM.

The IC50 is the concentration that gives 50% inhibition.
